Key:
lipoamide = compound: NC(=O)CCCCC1CCSS1 [lipoamide]; test: thermal stability z-score vs DMSO; higher = more thermally stabilized by treatment; details: HeLa, lipoamide concentration 100 µM
Method: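 Cellular thermal proteome profiling in HeLa cells. Cells were treated with 100 µM lipoamide for 1 h, with or without 1 mM arsenate for a further 1 h, then heated to ten temperatures (37-66.3 °C), and soluble protein was quantified by TMT mass spectrometry relative to 0.1% DMSO controls. The thermal stability score (sum of log2 fold changes minus the abundance score) was transformed to a z-score; mean of n = 3 experiments.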

potassium arsenate = compound: O=[As]([O-])(O)O.[K+] [potassium arsenate]; test: as above; details: HeLa; arsenate concentration 1 mM
Method: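 Cellular thermal proteome profiling in HeLa cells treated with 1 mM arsenate for 1 h (DMSO pretreatment), heated to ten temperatures (37-66.3 °C). Soluble protein was quantified by TMT mass spectrometry relative to DMSO controls; the thermal stability score was transformed to a z-score; mean of n = 3 experiments.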

[1] = arsenate co-treatment: 1 mM arsenate 1 h
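Further: each temperature applied for 3 min, abundance score taken as mean log2 fold change at the two lowest temperatures, z-score obtained by mean subtraction and division by SD.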

Chain of UniProt P08758 (P08758 whole entry): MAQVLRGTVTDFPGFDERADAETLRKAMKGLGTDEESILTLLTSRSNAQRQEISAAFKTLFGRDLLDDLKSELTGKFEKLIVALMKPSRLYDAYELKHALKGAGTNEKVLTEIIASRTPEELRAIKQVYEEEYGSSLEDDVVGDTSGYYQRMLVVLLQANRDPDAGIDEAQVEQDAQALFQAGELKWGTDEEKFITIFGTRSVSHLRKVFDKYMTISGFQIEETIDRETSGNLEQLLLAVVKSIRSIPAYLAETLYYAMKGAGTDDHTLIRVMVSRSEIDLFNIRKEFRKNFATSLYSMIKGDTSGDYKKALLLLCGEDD
Chain of UniProt Q9Y5L0 (Q9Y5L0 whole entry): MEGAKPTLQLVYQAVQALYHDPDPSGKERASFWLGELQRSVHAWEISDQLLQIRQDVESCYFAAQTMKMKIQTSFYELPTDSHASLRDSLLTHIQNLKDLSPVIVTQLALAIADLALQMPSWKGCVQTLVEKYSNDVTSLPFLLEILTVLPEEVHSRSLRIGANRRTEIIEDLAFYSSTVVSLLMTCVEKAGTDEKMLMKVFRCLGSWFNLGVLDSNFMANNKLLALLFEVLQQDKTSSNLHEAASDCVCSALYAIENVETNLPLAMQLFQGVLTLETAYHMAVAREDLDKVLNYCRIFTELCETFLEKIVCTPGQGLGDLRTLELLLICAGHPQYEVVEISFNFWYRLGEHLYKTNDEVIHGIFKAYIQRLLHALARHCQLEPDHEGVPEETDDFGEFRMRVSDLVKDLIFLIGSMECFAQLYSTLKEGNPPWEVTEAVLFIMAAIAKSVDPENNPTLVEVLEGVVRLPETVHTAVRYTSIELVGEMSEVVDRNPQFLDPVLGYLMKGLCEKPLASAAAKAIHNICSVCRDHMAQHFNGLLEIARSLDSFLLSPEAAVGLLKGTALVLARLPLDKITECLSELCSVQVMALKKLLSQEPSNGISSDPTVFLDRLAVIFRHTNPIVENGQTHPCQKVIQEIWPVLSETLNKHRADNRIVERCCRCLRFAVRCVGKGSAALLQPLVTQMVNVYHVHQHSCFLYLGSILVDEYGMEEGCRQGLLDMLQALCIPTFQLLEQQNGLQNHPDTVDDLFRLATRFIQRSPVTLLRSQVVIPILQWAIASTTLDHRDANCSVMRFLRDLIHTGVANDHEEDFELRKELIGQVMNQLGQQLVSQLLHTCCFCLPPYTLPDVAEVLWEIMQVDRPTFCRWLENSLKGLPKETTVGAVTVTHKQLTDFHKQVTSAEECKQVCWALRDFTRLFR
Chain of UniProt Q8IWR0 (Q8IWR0 whole entry): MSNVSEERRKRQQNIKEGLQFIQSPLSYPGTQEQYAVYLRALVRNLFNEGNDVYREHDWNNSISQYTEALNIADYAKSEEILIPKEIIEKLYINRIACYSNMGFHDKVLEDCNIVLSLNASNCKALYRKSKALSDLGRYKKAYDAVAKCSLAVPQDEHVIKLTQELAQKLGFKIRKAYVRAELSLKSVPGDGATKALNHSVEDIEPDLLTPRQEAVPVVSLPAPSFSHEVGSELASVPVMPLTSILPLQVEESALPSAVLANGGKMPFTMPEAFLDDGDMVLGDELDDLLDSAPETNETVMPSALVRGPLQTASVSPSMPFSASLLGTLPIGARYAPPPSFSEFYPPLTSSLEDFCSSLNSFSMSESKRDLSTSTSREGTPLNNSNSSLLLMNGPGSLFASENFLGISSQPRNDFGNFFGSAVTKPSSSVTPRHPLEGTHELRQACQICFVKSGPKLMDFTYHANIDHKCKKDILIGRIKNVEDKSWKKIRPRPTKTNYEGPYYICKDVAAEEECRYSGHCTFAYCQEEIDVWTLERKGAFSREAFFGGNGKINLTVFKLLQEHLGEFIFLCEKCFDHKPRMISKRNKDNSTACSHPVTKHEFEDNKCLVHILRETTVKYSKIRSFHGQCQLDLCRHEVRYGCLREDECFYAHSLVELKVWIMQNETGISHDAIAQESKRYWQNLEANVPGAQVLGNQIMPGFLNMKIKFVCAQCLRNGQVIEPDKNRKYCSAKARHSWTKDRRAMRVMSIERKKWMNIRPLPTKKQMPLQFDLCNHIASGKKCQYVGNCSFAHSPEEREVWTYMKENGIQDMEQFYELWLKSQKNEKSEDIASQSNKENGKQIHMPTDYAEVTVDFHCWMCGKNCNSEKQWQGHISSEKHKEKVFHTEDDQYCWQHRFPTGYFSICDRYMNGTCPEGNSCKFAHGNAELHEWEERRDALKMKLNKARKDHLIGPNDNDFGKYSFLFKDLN
Chain of UniProt Q9UN79 (Q9UN79 whole entry): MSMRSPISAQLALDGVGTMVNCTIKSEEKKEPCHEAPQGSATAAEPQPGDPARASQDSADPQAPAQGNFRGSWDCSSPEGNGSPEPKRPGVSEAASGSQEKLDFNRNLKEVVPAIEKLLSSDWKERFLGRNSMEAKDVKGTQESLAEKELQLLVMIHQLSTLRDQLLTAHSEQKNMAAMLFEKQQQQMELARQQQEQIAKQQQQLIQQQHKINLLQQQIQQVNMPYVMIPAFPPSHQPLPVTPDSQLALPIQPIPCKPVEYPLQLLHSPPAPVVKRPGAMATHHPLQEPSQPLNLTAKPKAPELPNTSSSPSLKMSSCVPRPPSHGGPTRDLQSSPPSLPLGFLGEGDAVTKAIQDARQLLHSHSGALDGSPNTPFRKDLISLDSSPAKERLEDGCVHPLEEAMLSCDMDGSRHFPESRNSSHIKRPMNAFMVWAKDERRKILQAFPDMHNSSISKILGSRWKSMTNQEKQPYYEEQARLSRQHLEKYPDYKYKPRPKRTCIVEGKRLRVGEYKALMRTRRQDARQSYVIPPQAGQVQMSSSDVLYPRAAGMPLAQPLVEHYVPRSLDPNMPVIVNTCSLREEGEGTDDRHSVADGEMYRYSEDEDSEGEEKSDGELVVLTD
Chain of UniProt Q9UFN0 (Q9UFN0 whole entry): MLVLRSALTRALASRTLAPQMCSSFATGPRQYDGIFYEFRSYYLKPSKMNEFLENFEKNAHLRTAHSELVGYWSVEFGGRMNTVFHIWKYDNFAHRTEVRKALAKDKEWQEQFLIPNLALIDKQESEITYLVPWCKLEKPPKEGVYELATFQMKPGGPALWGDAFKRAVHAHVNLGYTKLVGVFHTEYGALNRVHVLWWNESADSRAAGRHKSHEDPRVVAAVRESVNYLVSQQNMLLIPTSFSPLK
Chain of UniProt P53609 (P53609 whole entry, looked up): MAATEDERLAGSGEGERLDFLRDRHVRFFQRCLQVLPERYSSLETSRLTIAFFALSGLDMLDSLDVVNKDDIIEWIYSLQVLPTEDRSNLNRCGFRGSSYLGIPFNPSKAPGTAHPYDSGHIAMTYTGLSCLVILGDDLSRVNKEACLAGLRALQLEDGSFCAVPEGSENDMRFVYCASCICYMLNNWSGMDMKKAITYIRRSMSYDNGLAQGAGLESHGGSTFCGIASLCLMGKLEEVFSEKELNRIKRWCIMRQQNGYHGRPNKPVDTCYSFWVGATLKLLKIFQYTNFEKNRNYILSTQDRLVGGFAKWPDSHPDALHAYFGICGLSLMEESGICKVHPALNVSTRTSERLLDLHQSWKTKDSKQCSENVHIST
Chain of UniProt O14795 (O14795 whole entry): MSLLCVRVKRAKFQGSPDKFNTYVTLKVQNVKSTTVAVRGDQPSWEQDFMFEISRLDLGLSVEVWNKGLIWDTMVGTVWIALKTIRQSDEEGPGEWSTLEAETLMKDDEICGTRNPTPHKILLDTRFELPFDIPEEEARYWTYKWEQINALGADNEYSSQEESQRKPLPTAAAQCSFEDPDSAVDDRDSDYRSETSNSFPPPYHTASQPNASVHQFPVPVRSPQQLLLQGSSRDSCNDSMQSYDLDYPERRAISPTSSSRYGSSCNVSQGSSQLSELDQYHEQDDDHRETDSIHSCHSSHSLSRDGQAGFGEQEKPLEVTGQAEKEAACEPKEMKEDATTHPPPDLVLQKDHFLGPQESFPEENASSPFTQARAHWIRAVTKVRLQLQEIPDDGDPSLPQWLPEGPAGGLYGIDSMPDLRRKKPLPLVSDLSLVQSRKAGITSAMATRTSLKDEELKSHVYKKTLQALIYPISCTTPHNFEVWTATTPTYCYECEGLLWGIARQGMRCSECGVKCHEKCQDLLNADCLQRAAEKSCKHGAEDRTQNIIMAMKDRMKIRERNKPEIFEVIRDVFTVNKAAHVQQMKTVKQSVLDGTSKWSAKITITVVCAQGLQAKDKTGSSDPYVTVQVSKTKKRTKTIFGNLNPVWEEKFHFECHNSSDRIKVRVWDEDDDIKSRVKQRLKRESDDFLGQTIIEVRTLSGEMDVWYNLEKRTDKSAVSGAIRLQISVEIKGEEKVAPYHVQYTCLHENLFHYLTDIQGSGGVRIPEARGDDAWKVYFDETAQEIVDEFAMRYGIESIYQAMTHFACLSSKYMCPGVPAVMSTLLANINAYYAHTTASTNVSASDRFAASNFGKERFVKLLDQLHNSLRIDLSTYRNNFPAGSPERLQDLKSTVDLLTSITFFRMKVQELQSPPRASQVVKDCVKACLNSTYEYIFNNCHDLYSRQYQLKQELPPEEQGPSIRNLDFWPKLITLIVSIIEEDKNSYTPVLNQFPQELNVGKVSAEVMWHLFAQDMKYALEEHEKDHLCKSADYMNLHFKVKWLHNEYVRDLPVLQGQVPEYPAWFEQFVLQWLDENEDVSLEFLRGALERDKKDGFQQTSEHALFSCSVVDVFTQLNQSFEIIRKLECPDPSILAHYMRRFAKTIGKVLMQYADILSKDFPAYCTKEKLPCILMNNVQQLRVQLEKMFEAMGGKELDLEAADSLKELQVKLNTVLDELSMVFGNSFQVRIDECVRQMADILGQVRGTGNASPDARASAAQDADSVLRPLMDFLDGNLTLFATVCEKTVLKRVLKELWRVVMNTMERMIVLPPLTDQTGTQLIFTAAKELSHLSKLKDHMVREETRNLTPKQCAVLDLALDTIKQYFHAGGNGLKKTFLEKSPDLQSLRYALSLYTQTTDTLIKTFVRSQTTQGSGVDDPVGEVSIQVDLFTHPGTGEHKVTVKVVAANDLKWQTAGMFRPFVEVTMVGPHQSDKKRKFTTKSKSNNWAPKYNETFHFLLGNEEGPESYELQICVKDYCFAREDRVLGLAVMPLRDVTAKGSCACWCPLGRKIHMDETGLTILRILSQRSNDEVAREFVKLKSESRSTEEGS

VAPB (UniProt O95292) gave a thermal stability z-score (lipoamide; [1]) of -0.055, a thermal stability z-score (lipoamide; arsenate co-treatment: none) of 0.415 and a thermal stability z-score (potassium arsenate) of -0.178.
Work on GRHPR (UniProt Q9UBQ7) yielded a thermal stability z-score (lipoamide; [1]) of -0.261, a thermal stability z-score (lipoamide; arsenate co-treatment: none) of 0.411 and a thermal stability z-score (potassium arsenate) of 1.22.
With FOXK2 (UniProt Q01167) the thermal stability z-score (lipoamide; [1]) was 0.0506, the thermal stability z-score (lipoamide; arsenate co-treatment: none) was -0.306 and the thermal stability z-score (potassium arsenate) was 0.133.
In the case of NMD3 (UniProt Q96D46), the thermal stability z-score (lipoamide; [1]) is reported as 0.204, the thermal stability z-score (lipoamide; arsenate co-treatment: none) is reported as 0.115 and the thermal stability z-score (potassium arsenate) is reported as -0.0507.
With MRPS34 (UniProt P82930) the thermal stability z-score (lipoamide; [1]) was -0.835, the thermal stability z-score (lipoamide; arsenate co-treatment: none) was -0.044 and the thermal stability z-score (potassium arsenate) was 0.427.
In the case of G3BP1 (UniProt Q13283), the thermal stability z-score (lipoamide; [1]) is reported as 0.523, the thermal stability z-score (lipoamide; arsenate co-treatment: none) is reported as 0.664 and the thermal stability z-score (potassium arsenate) is reported as 0.753.
Target UNC13B (UniProt O14795) has a thermal stability z-score (lipoamide; [1]) of -0.0346, a thermal stability z-score (lipoamide; arsenate co-treatment: none) of -0.119 and a thermal stability z-score (potassium arsenate) of -0.156.
In the case of UBE4B (UniProt O95155), the thermal stability z-score (lipoamide; [1]) is reported as -0.444, the thermal stability z-score (lipoamide; arsenate co-treatment: none) is reported as -0.412 and the thermal stability z-score (potassium arsenate) is reported as 0.599.
SAMHD1 (UniProt Q9Y3Z3) showed a thermal stability z-score (lipoamide; [1]) of -0.0165, a thermal stability z-score (lipoamide; arsenate co-treatment: none) of 0.3 and a thermal stability z-score (potassium arsenate) of 0.738.
DNAJA3 (UniProt Q96EY1) was tested, and the thermal stability z-score (lipoamide; [1]) was -1.12, the thermal stability z-score (lipoamide; arsenate co-treatment: none) was -0.564 and the thermal stability z-score (potassium arsenate) was 0.258.
ANKRD44 (UniProt Q8N8A2) gave a thermal stability z-score (lipoamide; [1]) of -0.00602, a thermal stability z-score (lipoamide; arsenate co-treatment: none) of -0.323 and a thermal stability z-score (potassium arsenate) of -0.0202.
FLII (UniProt Q13045) gave a thermal stability z-score (lipoamide; [1]) of -0.35, a thermal stability z-score (lipoamide; arsenate co-treatment: none) of 0.0176 and a thermal stability z-score (potassium arsenate) of 0.68.
For DCAF15 (UniProt Q66K64), the thermal stability z-score (lipoamide; [1]) was 0.165, the thermal stability z-score (lipoamide; arsenate co-treatment: none) was -0.178 and the thermal stability z-score (potassium arsenate) was -0.174.
For ITGAV (UniProt P06756), the thermal stability z-score (lipoamide; [1]) was -0.283, the thermal stability z-score (lipoamide; arsenate co-treatment: none) was -0.316 and the thermal stability z-score (potassium arsenate) was -0.323.
NONO (UniProt Q15233) was tested, and the thermal stability z-score (lipoamide; [1]) was 1.05, the thermal stability z-score (lipoamide; arsenate co-treatment: none) was 0.927 and the thermal stability z-score (potassium arsenate) was -0.137.
Target DNM2 (UniProt P50570) has a thermal stability z-score (lipoamide; [1]) of -0.494, a thermal stability z-score (lipoamide; arsenate co-treatment: none) of -0.287 and a thermal stability z-score (potassium arsenate) of 0.304.
Work on TFAM (UniProt Q00059) yielded a thermal stability z-score (lipoamide; [1]) of -0.198, a thermal stability z-score (lipoamide; arsenate co-treatment: none) of -0.126 and a thermal stability z-score (potassium arsenate) of -0.121.
With VPS39 (UniProt Q96JC1) the thermal stability z-score (lipoamide; [1]) was -0.937, the thermal stability z-score (lipoamide; arsenate co-treatment: none) was -0.6 and the thermal stability z-score (potassium arsenate) was 0.407.
With INPP5A (UniProt Q14642) the thermal stability z-score (lipoamide; [1]) was -1.28, the thermal stability z-score (lipoamide; arsenate co-treatment: none) was -0.144 and the thermal stability z-score (potassium arsenate) was 0.656.
AKAP13 (UniProt Q12802) was tested, and the thermal stability z-score (lipoamide; [1]) was -0.125, the thermal stability z-score (lipoamide; arsenate co-treatment: none) was -0.1 and the thermal stability z-score (potassium arsenate) was 0.667.
LSM14B (UniProt Q9BX40) showed a thermal stability z-score (lipoamide; [1]) of -0.354, a thermal stability z-score (lipoamide; arsenate co-treatment: none) of 0.0171 and a thermal stability z-score (potassium arsenate) of 0.218.
Target FAM234A (UniProt Q9H0X4) has a thermal stability z-score (lipoamide; [1]) of -0.353, a thermal stability z-score (lipoamide; arsenate co-treatment: none) of -0.499 and a thermal stability z-score (potassium arsenate) of -0.743.
PSPC1 (UniProt Q8WXF1) was tested, and the thermal stability z-score (lipoamide; [1]) was -0.0313, the thermal stability z-score (lipoamide; arsenate co-treatment: none) was 0.551 and the thermal stability z-score (potassium arsenate) was 0.449.
TNPO3 (UniProt Q9Y5L0) showed a thermal stability z-score (lipoamide; [1]) of -0.654, a thermal stability z-score (lipoamide; arsenate co-treatment: none) of -0.367 and a thermal stability z-score (potassium arsenate) of -0.107.
ANXA5 (UniProt P08758) was tested, and the thermal stability z-score (lipoamide; [1]) was 1.34, the thermal stability z-score (lipoamide; arsenate co-treatment: none) was 1.22 and the thermal stability z-score (potassium arsenate) was 0.601.
For FKBP2 (UniProt P26885), the thermal stability z-score (lipoamide; [1]) was -3.2, the thermal stability z-score (lipoamide; arsenate co-treatment: none) was -3.35 and the thermal stability z-score (potassium arsenate) was 0.177.
In the case of MRPL44 (UniProt Q9H9J2), the thermal stability z-score (lipoamide; [1]) is reported as -0.467, the thermal stability z-score (lipoamide; arsenate co-treatment: none) is reported as -0.447 and the thermal stability z-score (potassium arsenate) is reported as -0.354.
AKAP10 (UniProt O43572) showed a thermal stability z-score (lipoamide; [1]) of -0.128, a thermal stability z-score (lipoamide; arsenate co-treatment: none) of -0.105 and a thermal stability z-score (potassium arsenate) of -0.229.
ECI1 (UniProt P42126) was tested, and the thermal stability z-score (lipoamide; [1]) was 0.859, the thermal stability z-score (lipoamide; arsenate co-treatment: none) was 0.555 and the thermal stability z-score (potassium arsenate) was 0.59.
Work on PTRF (UniProt Q6NZI2) yielded a thermal stability z-score (lipoamide; [1]) of 0.213, a thermal stability z-score (lipoamide; arsenate co-treatment: none) of 0.0879 and a thermal stability z-score (potassium arsenate) of 0.778.
NUTF2 (UniProt P61970) was tested, and the thermal stability z-score (lipoamide; [1]) was 0.312, the thermal stability z-score (lipoamide; arsenate co-treatment: none) was 0.256 and the thermal stability z-score (potassium arsenate) was -0.609.
AKT1S1 (UniProt Q96B36) gave a thermal stability z-score (lipoamide; [1]) of -0.0956, a thermal stability z-score (lipoamide; arsenate co-treatment: none) of -0.229 and a thermal stability z-score (potassium arsenate) of -0.504.
Work on SMAP2 (UniProt Q8WU79) yielded a thermal stability z-score (lipoamide; [1]) of -1.95, a thermal stability z-score (lipoamide; arsenate co-treatment: none) of -0.774 and a thermal stability z-score (potassium arsenate) of -1.45.
KLHL13 (UniProt Q9P2N7) gave a thermal stability z-score (lipoamide; [1]) of -0.764, a thermal stability z-score (lipoamide; arsenate co-treatment: none) of -0.242 and a thermal stability z-score (potassium arsenate) of 0.825.
IRF2BP1 (UniProt Q8IU81) gave a thermal stability z-score (lipoamide; [1]) of -0.196, a thermal stability z-score (lipoamide; arsenate co-treatment: none) of -0.13 and a thermal stability z-score (potassium arsenate) of -0.228.
With MAP7D1 (UniProt Q3KQU3) the thermal stability z-score (lipoamide; [1]) was 0.172, the thermal stability z-score (lipoamide; arsenate co-treatment: none) was -0.0726 and the thermal stability z-score (potassium arsenate) was -0.702.
For ZC3H7A (UniProt Q8IWR0), the thermal stability z-score (lipoamide; [1]) was -0.124, the thermal stability z-score (lipoamide; arsenate co-treatment: none) was -0.0131 and the thermal stability z-score (potassium arsenate) was -0.613.
With IPO13 (UniProt O94829) the thermal stability z-score (lipoamide; [1]) was -0.112, the thermal stability z-score (lipoamide; arsenate co-treatment: none) was -0.218 and the thermal stability z-score (potassium arsenate) was -0.159.
RNF219 (UniProt Q5W0B1) was tested, and the thermal stability z-score (lipoamide; [1]) was -0.038, the thermal stability z-score (lipoamide; arsenate co-treatment: none) was -0.0978 and the thermal stability z-score (potassium arsenate) was 0.0297.
Target FARP2 (UniProt O94887) has a thermal stability z-score (lipoamide; [1]) of -0.32, a thermal stability z-score (lipoamide; arsenate co-treatment: none) of -0.266 and a thermal stability z-score (potassium arsenate) of -0.235.
Target SOX13 (UniProt Q9UN79) has a thermal stability z-score (lipoamide; [1]) of -0.169, a thermal stability z-score (lipoamide; arsenate co-treatment: none) of 0.00372 and a thermal stability z-score (potassium arsenate) of -0.618.
Target SRSF6 (UniProt Q13247) has a thermal stability z-score (lipoamide; [1]) of 1.75, a thermal stability z-score (lipoamide; arsenate co-treatment: none) of 1.04 and a thermal stability z-score (potassium arsenate) of -0.598.
With NIPSNAP3A (UniProt Q9UFN0) the thermal stability z-score (lipoamide; [1]) was 0.144, the thermal stability z-score (lipoamide; arsenate co-treatment: none) was 0.432 and the thermal stability z-score (potassium arsenate) was 0.337.
CABLES1 (UniProt Q8TDN4) was tested, and the thermal stability z-score (lipoamide; [1]) was 0.124, the thermal stability z-score (lipoamide; arsenate co-treatment: none) was 0.218 and the thermal stability z-score (potassium arsenate) was -0.0215.
PGGT1B (UniProt P53609) showed a thermal stability z-score (lipoamide; [1]) of -0.242, a thermal stability z-score (lipoamide; arsenate co-treatment: none) of 0.0735 and a thermal stability z-score (potassium arsenate) of 0.268.
Target GSTK1 (UniProt Q9Y2Q3) has a thermal stability z-score (lipoamide; [1]) of -0.0293, a thermal stability z-score (lipoamide; arsenate co-treatment: none) of 0.351 and a thermal stability z-score (potassium arsenate) of -0.0332.
HDAC4 (UniProt P56524) showed a thermal stability z-score (lipoamide; [1]) of 0.426, a thermal stability z-score (lipoamide; arsenate co-treatment: none) of 0.45 and a thermal stability z-score (potassium arsenate) of -0.19.
For SIRT2 (UniProt Q8IXJ6), the thermal stability z-score (lipoamide; [1]) was 0.594, the thermal stability z-score (lipoamide; arsenate co-treatment: none) was 0.653 and the thermal stability z-score (potassium arsenate) was -0.31.
With RPS15 (UniProt P62841) the thermal stability z-score (lipoamide; [1]) was 0.148, the thermal stability z-score (lipoamide; arsenate co-treatment: none) was 0.282 and the thermal stability z-score (potassium arsenate) was -0.957.
For APIP (UniProt Q96GX9), the thermal stability z-score (lipoamide; [1]) was 0.597, the thermal stability z-score (lipoamide; arsenate co-treatment: none) was 0.408 and the thermal stability z-score (potassium arsenate) was -0.0221.
For OPA3 (UniProt Q9H6K4), the thermal stability z-score (lipoamide; [1]) was 1.42, the thermal stability z-score (lipoamide; arsenate co-treatment: none) was 0.732 and the thermal stability z-score (potassium arsenate) was 0.247.
Target RANGAP1 (UniProt P46060) has a thermal stability z-score (lipoamide; [1]) of 0.0948, a thermal stability z-score (lipoamide; arsenate co-treatment: none) of 0.327 and a thermal stability z-score (potassium arsenate) of 1.77.
In the case of KCTD10 (UniProt Q9H3F6), the thermal stability z-score (lipoamide; [1]) is reported as 0.997, the thermal stability z-score (lipoamide; arsenate co-treatment: none) is reported as 0.63 and the thermal stability z-score (potassium arsenate) is reported as 1.06.
PHF5A (UniProt Q7RTV0) showed a thermal stability z-score (lipoamide; [1]) of 0.703, a thermal stability z-score (lipoamide; arsenate co-treatment: none) of 0.339 and a thermal stability z-score (potassium arsenate) of -5.28.
In the case of VPS28 (UniProt Q9UK41), the thermal stability z-score (lipoamide; [1]) is reported as 0.513, the thermal stability z-score (lipoamide; arsenate co-treatment: none) is reported as 0.681 and the thermal stability z-score (potassium arsenate) is reported as 0.492.
